Patent publication US10208019B2, “GLP-1 receptor agonists and uses thereof” (Pfizer Inc., priority 2016, dated 2019)
Counter-ions that a name gives are not always drawn. Like-named read-outs stand apart in the source and are kept apart here.

Tests used:
human GLP-1R [1] = target: human GLP-1R (Homo sapiens, UniProt P43220, G168S); test: CHO GLP-1R Clone H6—Assay 1: HTRF cAMP cell-based functional agonist assay (high GLP-1R density); settings: for EC50: CHO GLP-1R Clone H6, cAMP HTRF, geometric mean
Sequence of human GLP-1R (Homo sapiens, UniProt P43220, G168S) (P43220 24-463 G168S limits assumed): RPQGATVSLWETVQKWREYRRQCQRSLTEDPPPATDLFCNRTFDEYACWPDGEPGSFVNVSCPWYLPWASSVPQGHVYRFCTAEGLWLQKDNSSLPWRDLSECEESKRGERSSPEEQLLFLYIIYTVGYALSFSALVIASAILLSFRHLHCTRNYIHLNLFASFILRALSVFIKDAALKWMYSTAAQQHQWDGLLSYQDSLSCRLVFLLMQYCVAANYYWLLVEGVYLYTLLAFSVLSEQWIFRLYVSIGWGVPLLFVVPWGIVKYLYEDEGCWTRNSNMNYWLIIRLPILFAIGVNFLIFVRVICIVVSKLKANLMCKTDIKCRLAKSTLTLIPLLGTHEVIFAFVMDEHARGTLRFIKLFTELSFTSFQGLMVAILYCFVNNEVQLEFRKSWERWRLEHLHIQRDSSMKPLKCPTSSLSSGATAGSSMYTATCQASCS

human GLP-1R [2] = target: human GLP-1R (Homo sapiens (Human), UniProt P43220, L260F); test: CHO GLP-1R Clone C6—Assay 2: HTRF cAMP cell-based functional agonist assay (low GLP-1R density); settings: for EC50: CHO GLP-1R Clone C6, cAMP HTRF, geometric mean; for Emax: read-out: Assay 2 Emax (%)
Sequence of human GLP-1R (Homo sapiens (Human), UniProt P43220, L260F) (P43220 24-463 L260F): as the sequence (P43220 24-463 G168S limits assumed) above, with S145G, L237F counted along it
Protocol: GLP-1R-mediated agonist activity was determined with a cell-based functional assay utilizing an HTRF (Homogeneous Time-Resolved Fluorescence) cAMP detection kit (cAMP HI Range Assay Kit; Cis Bio cat #62AM6PEJ) that measures cAMP levels in the cell. The method is a competitive immunoassay between native cAMP produced by the cells and exogenous cAMP labeled with the dye d2. The tracer binding is visualized by a mAb anti-cAMP labeled with Cryptate. The specific signal (i.e. energy transfer) is inversely proportional to the concentration of cAMP in either a standard or an experimental sample.
The human GLP-1R coding sequence (NCBI Reference Sequence NP_002053.3, including naturally-occurring variant Leu260Phe) was subcloned into pcDNA5-FRT-TO and a clonal CHO cell line stably expressing a low receptor density was isolated using the Flp-In™ T-Rex™ System, as described by the manufacturer (ThermoFisher).
Cells were removed from cryopreservation, re-suspended in 40 mL of Dulbecco's Phosphate Buffered Saline (DPBS-Lonza Cat #17-512Q) and centrifuged at 800×g for 5 min at 22° C. The DPBS was aspirated, and the cell pellet was re-suspended in 10 mL of complete growth medium (DMEM:F12 1:1 Mixture with HEPES, L-Gln, 500 mL (DMEM/F12 Lonza Cat #12-719F), 10% heat inactivated fetal bovine serum (Gibco Cat #16140-071), 5 mL of 100× Pen-Strep (Gibco Cat #15140-122), 5 mL of 100× L-Glutamine (Gibco Cat #25030-081), 700 μg/mL Hygromycin (Invitrogen Cat #10687010) and 15 μg/mL Blasticidin (Gibco Cat #R21001). A 1 mL sample of the cell suspension in growth media was counted on a Becton Dickinson ViCell to determine cell viability and cell count per mL. The remaining cell suspension was then adjusted with growth media to deliver 1600 viable cells per well using a Matrix Combi Multidrop reagent dispenser, and the cells were dispensed into a white 384 well tissue culture treated assay plate (Corning 3570). The assay plate was then incubated for 48 h at 37° C. in a humidified environment (95% O2, 5% CO2)
Varying concentrations of each compound to be tested (in DMSO) were diluted in assay buffer [HBSS with Calcium/Magnesium (Lonza/BioWhittaker cat #10-527F)/0.1% BSA (Sigma Aldrich cat #A7409-1L)/20 mM HEPES (Lonza/BioWhittaker cat #17-737E)] containing 100 μM 3-isobutyl-1-methylxanthin (IBMX; Sigma cat #15879). The final DMSO concentration in the compound/assay buffer mixture is 1%.
After 48 h, the growth media was removed from the assay plate wells, and the cells were treated with 20 μL of the serially diluted compound in assay buffer for 30 min at 37° C. in a humidified environment (95% O2, 5% CO2). Following the 30 min incubation, 10 μL of labeled d2 cAMP and 10 μL of anti-cAMP antibody (both diluted 1:20 in cell lysis buffer; as described in the manufacturer's assay protocol) were added to each well of the assay plate. The plates were then incubated at room temperature and after 60 minutes, changes in the HTRF signal were read with an Envision 2104 multi-label plate reader using excitation of 330 nm and emissions of 615 and 665 nm. Raw data were converted to nM cAMP by interpolation from a cAMP standard curve (as described in the manufacturer's assay protocol) and the percent effect was determined relative to a saturating concentration of the full agonist GLP-1 (1 μM) included on each plate. EC50 determinations were made from agonist dose response curves analyzed with a curve fitting program using a 4-parameter logistic dose response equation.

[3] = read-out: Assay 1 Emax (%), CHO GLP-1R Clone H6, relative to saturating concentration of full agonist GLP-1 (1 μM), arithmetic mean
[4] = CHO GLP-1R Clone C6, relative to saturating concentration of full agonist GLP-1 (1 μM), arithmetic mean

Compound	EC50 (human GLP-1R [1]; read-out: Assay 1 EC50) [nM]	Emax (human GLP-1R [1]; [3]) [%]	EC50 (human GLP-1R [2]) [nM]	Emax (human GLP-1R [2]; [4]) [%]	Emax (human GLP-1R [1]; read-out: Assay 1 Emax (%)) [%]	Emax (human GLP-1R [2]) [%]	EC50 (human GLP-1R [1]; Assay 1 EC50 (nM)) [nM]
O=C(O)c1ccc2nc(CN3CCC(c4cccc(OCc5ccc(F)cc5F)n4)CC3)n(C[C@@H]3CCO3)c2n1 [Example 2A-20, 2-[(4-{6-[(2,4-difluorobenzyl)oxy]pyridin-2-yl}piperidin-1-yl)methyl]-3-[(2S)-oxetan-2-ylmethyl]-3H-imidazo[4,5-b]pyridine-5-carboxylic acid]	0.96	80	14	95	–	–	–
C[C@H]1CN(c2cccc(OCc3ccc(C#N)cc3F)n2)CCN1Cc1nc2ccc(C(=O)O)cc2n1Cc1cnnn1C [Example 10A-23]	38	76	760	91	–	–	–
Cn1cncc1Cn1c(CN2CCC(c3cccc(OCc4ccc(C#N)cc4F)n3)CC2)nc2ccc(C(=O)O)nc21 [Example 10A-76]	2.9	79	51	95	–	–	–
Cn1c(CN2CCC(c3cccc(OCc4ccc(Cl)cc4F)n3)CC2)nc2ccc(C(=O)O)nc21 [Example 2A-01, 2-((4-(6-((4-Chloro-2-fluorobenzyl)oxy)pyridin-2-yl)piperidin-1-yl)methyl)-3-methyl-3H-imidazo[4,5-b]pyridine-5-carboxylic acid hydrochloride]	90	–	1800	–	76	89	–
O=C(O)c1ccc2nc(CN3CCC(c4cccc(OCc5ccc(Cl)cc5F)n4)CC3)n(Cc3ccon3)c2c1 [Example 11A-69, 2-[(4-{6-[(4-chloro-2-fluorobenzyl)oxy]pyridin-2-yl}piperidin-1-yl)methyl]-1-(1,2-oxazol-3-ylmethyl)-1H-benzimidazole-6-carboxylic acid]	5.3	76	21	84	–	–	–
C[C@H]1CN(c2cccc(OCc3ccc(C#N)cc3F)n2)CCN1Cc1nc2ccc(C(=O)O)cc2n1Cc1cocn1 [Example 10A-14]	8.1	74	220	93	–	–	–
COCCn1c(CN2CCC(c3cccc(OCc4ccccc4)n3)CC2)nc2ccc(C(=O)O)cc21 [Example 1A-10, 2-({4-[6-(benzyloxy)pyridin-2-yl]piperidin-1-yl}methyl)-1-(2-methoxyethyl)-1H-benzimidazole-6-carboxylic acid]	930	86	9000	100	–	–	–
Cc1ccn(CCn2c(CN3CCC(c4cccc(OCc5ccc(Cl)cc5F)n4)CC3)nc3ccc(C(=O)O)cc32)n1 [Example 11A-31, 2-[(4-{6-[(4-chloro-2-fluorobenzyl)oxy]pyridin-2-yl}piperidin-1-yl)methyl]-1-[2-(3-methyl-1H-pyrazol-1-yl)ethyl]-1H-benzimidazole-6-carboxylic acid]	72	76	1500	81	–	–	–
N#Cc1ccc(COc2nc(C3CCN(Cc4nc5ccc(C(=O)O)cc5n4C[C@@H]4CCO4)CC3)ccc2F)cc1 [Example 10A-55, 2-[(4-{6-[(4-cyanobenzyl)oxy]-5-fluoropyridin-2-yl}piperidin-1-yl)methyl]-1-[(2S)-oxetan-2-ylmethyl]-1H-benzimidazole-6-carboxylic acid]	1.2	84	24	98	–	–	–
O=C(O)c1ccc2nc(CN3CCC(c4cccc(OCc5ccc(F)cc5F)n4)CC3)n(C[C@@H]3CCO3)c2c1 [Example 10A-05, 2-[(4-{6-[(2,4-difluorobenzyl)oxy]pyridin-2-yl}piperidin-1-yl)methyl]-1-[(2S)-oxetan-2-ylmethyl]-1H-benzimidazole-6-carboxylic acid]	2.4	71	38	83	–	–	–
COC[C@@H]1C[C@H]1Cn1c(CN2CCC(c3cccc(OCc4ccc(Cl)cc4F)n3)CC2)nc2ccc(C(=O)O)cc21 [Example 1A-30, 2-[(4-{6-[(4-chloro-2-fluorobenzyl)oxy]pyridin-2-yl}piperidin-1-yl)methyl]-1-{[(1R,2R)-2-(methoxymethyl)cyclopropyl]methyl}-1H-benzimidazole-6-carboxylic acid]	150	86	4100	110	–	–	–
COCCn1c(CN2CCN(c3cccc(OCc4ccc(Cl)cc4F)n3)[C@H](C)C2)nc2ccc(C(=O)O)cc21 [Example 1A-14, 2-{[(3R)-4-{6-[(4-chloro-2-fluorobenzyl)oxy]pyridin-2-yl}-3-methylpiperazin-1-yl]methyl}-1-(2-methoxyethyl)-1H-benzimidazole-6-carboxylic acid]	47	71	1600	81	–	–	–
Cc1noc(CCn2c(CN3CCC(c4cccc(OCc5ccc(Cl)cc5F)n4)CC3)nc3ccc(C(=O)O)cc32)n1 [Example 11A-29, 2-[(4-{6-[(4-chloro-2-fluorobenzyl)oxy]pyridin-2-yl}piperidin-1-yl)methyl]-1-[2-(3-methyl-1,2,4-oxadiazol-5-yl)ethyl]-1H-benzim idazole-6-carboxylic acid]	55	71	1700	99	–	–	–
O=C(O)c1ccc2nc(CN3CCN(c4cccc(OCc5ccc(Cl)cc5F)n4)CC3)n(Cc3cnco3)c2c1 [Example 10A-45, 2-[(4-{6-[(4-chloro-2-fluorobenzyl)oxy]pyridin-2-yl}piperazin-1-yl)methyl]-1-(1,3-oxazol-5-ylmethyl)-1H-benzimidazole-6-carboxylic acid]	1	76	19	75	–	–	–
COCCn1c(CN2CCN(c3nc(OCc4ccc(Cl)cc4F)ccc3F)C[C@@H]2C)nc2ccc(C(=O)O)cc21 [Example 1A-06, 2-{[(2S)-4-{6-[(4-chloro-2-fluorobenzyl)oxy]-3-fluoropyridin-2-yl}-2-methylpiperazin-1-yl]methyl}-1-(2-methoxyethyl)-1H-benzimidazole-6-carboxylic acid]	29	84	350	70	–	–	–
C[C@H]1CN(c2cccc(OCc3ccc(C#N)cc3F)n2)CCN1Cc1nc2ccc(C(=O)O)cc2n1Cc1ncco1 [Example 10A-15, 2-{[(2S)-4-{6-[(4-cyano-2-fluorobenzyl)oxy]pyridin-2-yl}-2-methylpiperazin-1-yl]methyl}-1-(1,3-oxazol-2-ylmethyl)-1H-benzimidazole-6-carboxylic acid]	1.3	72	27	87	–	–	–
COCCn1c(CN2CCC(c3cccc(OCc4ccc(C#N)cc4)n3)CC2)nc2cc(F)c(C(=O)O)cc21 [Example 2A-14, 2-[(4-{6-[(4-cyanobenzyl)oxy]pyridin-2-yl}piperidin-1-yl)methyl]-5-fluoro-1-(2-methoxyethyl)-1H-benzimidazole-6-carboxylic acid]	110	71	3000	92	–	–	–
COCCn1c(CN2CCC(c3cccc(OCc4ccc(Cl)cc4F)n3)CC2)nc2cnc(C(=O)O)cc21 [Example 2A-07, 2-[(4-{6-[(4-chloro-2-fluorobenzyl)oxy]pyridin-2-yl}piperidin-1-yl)methyl]-1-(2-methoxyethyl)-1H-imidazo[4,5-c]pyridine-6-carboxylic acid]	140	72	1600	46	–	–	–
C[C@H]1CN(c2cccc(OCc3ccc(Cl)cc3F)n2)CCN1Cc1nc2ccc(C(=O)O)cc2n1Cc1cnco1 [Example 10A-16, 2-{[(2S)-4-{6-[(4-chloro-2-fluorobenzyl)oxy]pyridin-2-yl}-2-methylpiperazin-1-yl]methyl}-1-(1,3-oxazol-5-ylmethyl)-1H-benzimidazole-6-carboxylic acid]	1.7	67	45	83	–	–	–
O=C(O)c1ccc2nc(CN3CCC(c4cccc(OCc5ccc(Cl)cc5F)n4)CC3)n(Cc3c[nH]nn3)c2c1 [Example 11A-23, 2-[(4-{6-[(4-chloro-2-fluorobenzyl)oxy]pyridin-2-yl}piperidin-1-yl)methyl]-1-(1H-1,2,3-triazol-4-ylmethyl)-1H-benzimidazole-6-carboxylic acid]	25	78	330	96	–	–	–
O=C(O)c1ccc2nc(CN3CCC(c4cccc(OCc5ccc(Cl)cc5F)n4)CC3)n(Cc3cnco3)c2c1 [Example 10A-01, 2-[(4-{6-[(4-Chloro-2-fluorobenzyl)oxy]pyridin-2-yl}piperidin-1-yl)methyl]-1-(1,3-oxazol-5-ylmethyl)-1H-benzimidazole-6-carboxylic acid]	3.2	77	43	84	–	–	–
COCCn1c(CN2CC[C@@H](c3cccc(OCc4ccc(Cl)cc4F)n3)[C@H](C)C2)nc2ccc(C(=O)O)cc21 (racemic) [Example 1A-26, rac-2-{[(3S,4R)-4-{6-[(4-chloro-2-fluorobenzyl)oxy]pyridin-2-yl}-3-methylpiperidin-1-yl]methyl}-1-(2-methoxyethyl)-1H-benzimidazole-6-carboxylic acid]	–	80	1800	85	–	–	70
C[C@H]1CN(c2cccc(OCc3ccc(Cl)cc3F)n2)CCN1Cc1nc2ccc(C(=O)O)cc2n1Cc1cocn1 [Example 10A-13]	4.1	67	170	75	–	–	–
